Assay results published in ChEMBL document CHEMBL1154875, “Pharmacophoric model building for antitubercular activity of the individual Schiff bases of small combinatorial library” (2010).

Test system: Mycobacterium tuberculosis
Assay: Antimicrobial activity against Mycobacterium tuberculosis H37Rv ATCC 27294 at 6.25 ug/ml after 24 hrs by Microplate Almar blue assay
Format: functional
Details: H37Rv ATCC 27294, 24 h

CC(=O)OC(O/C(C)=N/NC(=O)c1ccco1)c1ccc([N+](=O)[O-])o1 (centres undefined)
inhibition at 6.25 µg/mL: 99%

O=C(NN/C=C/c1ccccc1)c1cc(/C=C\c2ccco2)on1
inhibition at 6.25 µg/mL: 80%

O=C(NN/C=C/c1ccccc1)c1ccncc1
inhibition at 6.25 µg/mL: 54%

CC(=O)OC(O/C(C)=N/NC(=O)c1cc(/C=C\c2ccco2)on1)c1ccc([N+](=O)[O-])o1 (centres undefined)
inhibition at 6.25 µg/mL: 59%

O=C(N/N=C/c1ccc([N+](=O)[O-])cc1)c1cc(/C=C\c2ccco2)on1
inhibition at 6.25 µg/mL: 37%

O=C1Nc2ccccc2/C1=N\NC(=O)c1ccco1
inhibition at 6.25 µg/mL: 41%

O=C(N/N=C/c1ccc([N+](=O)[O-])cc1)c1ccco1
inhibition at 6.25 µg/mL: 35%

O=C1Nc2ccccc2/C1=N\NC(=O)c1cccnc1
inhibition at 6.25 µg/mL: 57%

C/C(=N/NC(=O)c1ccco1)c1ccc([N+](=O)[O-])cc1
inhibition at 6.25 µg/mL: 62%

O=C1Nc2ccccc2/C1=N\NC(=O)c1cc(/C=C\c2ccco2)on1
inhibition at 6.25 µg/mL: 39%

C/C(=N/NC(=O)c1cc(/C=C\c2ccco2)on1)c1ccc([N+](=O)[O-])cc1
inhibition at 6.25 µg/mL: 66%

C/C(=N\NC(=O)c1ccncc1)c1ccc([N+](=O)[O-])cc1
inhibition at 6.25 µg/mL: 99%

O=C(N/N=C/c1ccccc1)c1ccncc1 [N'-BENZYLIDENE ISONICOTINOHYDRAZIDE]
inhibition at 6.25 µg/mL: 51%

CC(=O)OC(O/C(C)=N/NC(=O)c1ccncc1)c1ccc([N+](=O)[O-])o1 (centres undefined)
inhibition at 6.25 µg/mL: 84%
